US12544371B2, “Methods and compositions for treating acute lung injury and acute respiratory distress syndrome” (CalciMedica, Inc., priority 2020, dated 2026)
Read-outs that look alike come from different tables or passages of the source.

What was measured:
[1] = Phase 2 trial in severe COVID-19 pneumonia, interim results; format: in vivo, human; conditions: for Difference (Compound 1 − Standard Care), estimated mean of ordinal scale: MMRM; for Difference (Compound 1 − Standard Care), ordinal scale, sensitivity analysis: three patients with PaO2/FiO2<100 removed
Experimental: A phase 2 clinical trial is performed to evaluate Compound 1 in patients with severe COVID-19 pneumonia. The study will investigate the use of Compound 1 in patients with severe COVID-19 pneumonia who are at risk for progression to acute respiratory distress syndrome (ARDS).
Compound 1 Dose and Route of Administration: 2.0 mg/kg of an injectable emulsion of Compound 1 will be administered at 0 hour and 1.6 mg/kg will be administered at both 24 hours and 48 hours from the Start of the First Infusion of Study Drug (SFISD).
Study Design: In this randomized controlled open-label stage study, 60 patients who meet all of the inclusion criteria and none of the exclusion criteria will be randomized 2:1 to receive Compound 1 or continue with the local standard of care. The dose of Compound 1 will be 2.0 mg/kg of Compound 1 administered at 0 hour, and 1.6 mg/kg at 24 hours and 1.6 mg/kg at 48 hours. The SFISD should occur within 8 hours of the patient or LAR providing informed consent. The dosing will be based on actual body weight obtained at the time of hospitalization or screening for the study. A study physician or appropriately trained delegate will perform assessments at screening, immediately prior to the SFISD, and immediately prior to each subsequent infusion. At 72 hours after the SFISD, the patient will be assessed every 24 hours (±4 hours) until Day 30 after the SFISD, or until discharge if earlier. Patients who are discharged before Day 25 after the SFISD will be contacted at Day 30 (±5 days) and Day 60 (+5 days) for a safety and mortality assessment. Patients randomized to receive local standard of care will not have blood samples drawn for PK assessments.
Interim results for the phase 2 trial have been obtained, as follows. 18 patients with severe COVID-19 pneumonia have been enrolled, in which 12 treated have been treated with an injectable emulsion of Compound 1, and 6 have received the standard of care. 3 sites are currently enrolling patients. 11 of the enrolled patients are at site 1 (8 treated and 3 SOC), 3 are at site 2 (1 treated and 2 SOC), and 4 are at site 3 (3 treated and 1 SOC). The subjects with severe COVID-19 were those that necessitated low-flow oxygen treatment.
Compound 1 in Severe COVID-19 Pneumonia: Time to Hospital Discharge. One subject in standard care group was discharged with low flow treatment and is considered as censored at discharge instead of out of hospital. 3 patients who died were censored at Day 30. […] Similar improvements would be expected upon treatment with other intracellular Calcium signaling inhibitors or CRAC inhibitors.
Compound 1 in Severe COVID-19 Pneumonia: Ordinal Scale Analysis. The data in are based on an MMRM model and missing at random assumption. The ordinal scale was as follows: 1. Death 2. Hospitalized, on invasive mechanical ventilation or ECMO 3. Hospitalized, on non-invasive ventilation or high flow oxygen devices 4. Hospitalized, requiring low flow supplemental oxygen 5. Hospitalized, not requiring supplemental oxygen—requiring ongoing medical care (coronavirus (e.g. COVID-19) related or otherwise) 6. Hospitalized, not requiring supplemental oxygen—no longer requires ongoing medical care (other than per protocol study drug administration) 7. Not hospitalized. […] Similar improvements would be expected upon treatment with other intracellular Calcium signaling inhibitors or CRAC inhibitors.

[2] = tested on: IL-2 release by human CD4+ T cells; experiment: IL-2 release by human CD4+ T cells, isolated cell assay; format: cell-based; conditions: SEM (n), read-out: Compound 1 IC50, IL-2 release by human CD4+ T cells
Source text: (§1) CRAC channels may play a proximal role in a calcium-calcineurin pathway leading to cytokine release in immune cells.

[3] = tested on: IFNγ released from human PBMCs; experiment: Cytokine released from human PBMCs: IFNγ; format: cell-based
Source text: as §1

[4] = Safety pharmacology studies in rats; format: in vivo
Source text: Compound 1 is a non-limiting example of a composition described herein that inhibits calcium release-activated calcium (CRAC) channels).

[5] = tested on: human peripheral blood lymphocytes; experiment: In vitro micronucleus assay; format: cell-based
[6] = tested on: IL-10 released from human PBMCs; experiment: Cytokine released from human PBMCs: IL-10; format: cell-based; conditions: PBMC, mean of replicates
Source text: as §1

Cc1cccc(F)c1C(=O)Nc1cnc(-c2cc3c(cc2Cl)OC(F)(F)O3)cn1 [Compound 1, N-(5-(6-Chloro-2,2-difluorobenzo[d][1,3]dioxol-5-yl)pyrazin-2-yl)-2-fluoro-6-methylbenzamide]
Difference (Compound 1 − Standard Care), estimated mean of ordinal scale ([1]; Study Day 0): 0.00 | Difference (Compound 1 − Standard Care), ordinal scale, sensitivity analysis ([1]; Study Day 0): 0.00 | Difference (Compound 1 − Standard Care), estimated mean of ordinal scale ([1]; Study Day 1): 0.75 | Difference (Compound 1 − Standard Care), ordinal scale, sensitivity analysis ([1]; Study Day 1): 0.70 | Difference (Compound 1 − Standard Care), estimated mean of ordinal scale ([1]; Study Day 2): 0.83 | Difference (Compound 1 − Standard Care), ordinal scale, sensitivity analysis ([1]; Study Day 2): 0.80 | Difference (Compound 1 − Standard Care), estimated mean of ordinal scale ([1]; Study Day 3): 1.17 | Difference (Compound 1 − Standard Care), ordinal scale, sensitivity analysis ([1]; Study Day 3): 1.10 | Difference (Compound 1 − Standard Care), estimated mean of ordinal scale ([1]; Study Day 4): 1.73 | Difference (Compound 1 − Standard Care), ordinal scale, sensitivity analysis ([1]; Study Day 4): 1.76 | Difference (Compound 1 − Standard Care), estimated mean of ordinal scale ([1]; Study Day 5): 1.87 | Difference (Compound 1 − Standard Care), ordinal scale, sensitivity analysis ([1]; Study Day 5): 2.02 | Difference (Compound 1 − Standard Care), estimated mean of ordinal scale ([1]; Study Day 6): 2.04 | Difference (Compound 1 − Standard Care), ordinal scale, sensitivity analysis ([1]; Study Day 6): 2.23 | Difference (Compound 1 − Standard Care), estimated mean of ordinal scale ([1]; Study Day 7): 1.30 | Difference (Compound 1 − Standard Care), ordinal scale, sensitivity analysis ([1]; Study Day 7): 1.79 | Difference (Compound 1 − Standard Care), estimated mean of ordinal scale ([1]; Study Day 8): 1.39 | Difference (Compound 1 − Standard Care), ordinal scale, sensitivity analysis ([1]; Study Day 8): 1.89 | Difference (Compound 1 − Standard Care), estimated mean of ordinal scale ([1]; Study Day 9): 1.48 | Difference (Compound 1 − Standard Care), ordinal scale, sensitivity analysis ([1]; Study Day 9): 1.90 | Difference (Compound 1 − Standard Care), estimated mean of ordinal scale ([1]; Study Day 10): 1.21 | Difference (Compound 1 − Standard Care), ordinal scale, sensitivity analysis ([1]; Study Day 10): 1.81 | Difference (Compound 1 − Standard Care), estimated mean of ordinal scale ([1]; Study Day 12): 1.31 | Difference (Compound 1 − Standard Care), ordinal scale, sensitivity analysis ([1]; Study Day 12): 1.81 | Difference (Compound 1 − Standard Care), estimated mean of ordinal scale ([1]; Study Day 14): 1.05 | Difference (Compound 1 − Standard Care), ordinal scale, sensitivity analysis ([1]; Study Day 14): 2.07 | Difference (Compound 1 − Standard Care), ordinal scale, sensitivity analysis ([1]; Study Day 16): 1.82 | Difference (Compound 1 − Standard Care), ordinal scale, sensitivity analysis ([1]; Study Day 18): 1.83 | ordinal scale (7-point) ([1]; interim): improvement | Subjects out of hospital ([1]; interim, 9/12 subjects): 9/12 (75%) | PaO2/FiO2 ([1]; interim, following administration): increased | probability of being at a hospital over time ([1]; interim, versus standard care): lower probability of being at a hospital over time | KM estimate of number of days in hospital, median ([1]; interim, 95% CI (4 days, na)): 5.5 days (4 days, na) | IC50 [2]: 4 ± 0.5 nM | IC50 ([3]; Homo sapiens, PBMC, mean of replicates, read-out: Mean IC50, IFNγ released from human PBMCs): 138 nM | IC50 ([3]; Homo sapiens, PBMC, single replicates, read-out: Replicate IC50 values, IFNγ released from human PBMCs): 175 nM | IC50 ([3]; single replicates, read-out: Replicate IC50 values, IFNγ released from human PBMCs): 102 nM | adverse effects on central nervous or respiratory systems [4]: no adverse effects | micronucleus assay result [5]: weakly positive/equivocal | IC50 [6]: 303 nM
